These results are taken from patent US20240173432A1, “Compositions and Methods for Treatment of Myotonic Dystrophy Type 1 with CRISPR/SluCas9” (Vertex Pharmaceuticals Incorporated, priority 2021, published 2024).

Data set [1] relates to 3′ UTR of the human DMPK gene. Put plainly: Single-cut screening: indel editing efficiency by Sanger sequencing and ICE analysis in primary DM1 patient myoblasts. The settings on record: vehicle-treated samples; for Indel efficiency: single SluCas9 sgRNA RNP in primary DM1 patient myoblasts, Sanger sequencing and ICE analysis; for indel efficiency (Sanger sequencing and ICE analysis): single-cut, SluCas9 RNP, 72 hrs post nucleofection, wild-type allele. Type of data set: cell-based. Put shortly: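 Indels were estimated by ICE from Sanger chromatograms of PCR amplicons covering the DMPK 3′ UTR wild-type allele, using only vehicle-treated samples; sgRNAs with R2<0.9 are flagged. Samples came from primary DM1 patient myoblasts (2 × 10^5) harvested 72 h after nucleofection with 30 pmol SluCas9 and 90 pmol single sgRNA RNP.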

Data set [2] has as its system CUG foci in primary DM1 patient myoblasts. Put plainly: Single-cut screening: FISH staining of CUG RNA foci. The settings on record: single sgRNA, primary DM1 patient myoblasts; for % of CUG foci free nuclei (DNA-PKi): DNA-PKi treated. Type of data set: cell-based, human. Put shortly:
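CD56-purified primary DM1 patient myoblasts nucleofected with SluCas9:sgRNA RNP (30:90 pmol, single-cut), then DMSO or 3 μM DNA-PK inhibitor for 48 h. At 72 h post-nucleofection, cells fixed and stained for CUG foci with Cy3-PNA(CAG)5 probe (1 ng/μL, 80 °C), co-stained for MBNL1 and Hoechst, imaged by high-content confocal microscopy.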

The subject of data set [3] is CAG foci in primary DM1 patient myoblasts. Put plainly: Single-cut screening: CAG foci staining. Type of data set: cell-based, human. The settings on record: single sgRNA; for % of CAG foci positive nuclei (DNA-PKi): DNA-PKi treated. Put shortly:
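Primary DM1 patient myoblasts were PFA-fixed and hybridized with […] (1 ng/μL, 15 min at 80° C) in 30% formamide/2×SSC, followed by anti-MBNL1 immunostaining and Hoechst counterstain. CAG RNA foci were quantified by high-content confocal imaging after single-cut SuCas9 sgRNA editing.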

Turning to “GGCCCGGATCACAGGACTGGAG (guide RNA; chemistry not fully specified) [SluU31]”, the Indel efficiency in data set [1] worked out at 29%. In data set [2], the “% of CUG foci free nuclei (DNA-PKi)” value is recorded as 40.74% and the “% of CUG foci free nuclei (Vehicle)” value amounted to 14.2%. Moreover, in data set [3], the “% of CAG foci positive nuclei (DNA-PKi)” value amounted to 1.62% and the “% of CAG foci positive nuclei (Vehicle)” value worked out at 0.94%.
In the same order, the values of “GGCCTTTTATTCGCGAGGGTCG (guide RNA; chemistry not fully specified) [SluD94]” are 30%, 27.23%, 18.18%, 1.32% and 1%.
The corresponding values for “GGCGCGATCTCTGCCTGCTTAC (guide RNA; chemistry not fully specified) [SluD36]” are 52%, 29.02%, 13.52%, 2.32% and 3.24%.
The corresponding values for “GGCGCGGCTTCTGTGCCGTGCC (guide RNA; chemistry not fully specified) [SluU16]” are 7%, 27.5%, 10.73%, 1.73% and 1.28%.
On to “GGGCCTTTTATTCGCGAGGGTC (guide RNA; chemistry not fully specified) [SluD95]”, for which, in data set [1], the Indel efficiency is recorded as 28%. Further, in data set [2], the “% of CUG foci free nuclei (DNA-PKi)” value came out at 27.23% and the “% of CUG foci free nuclei (Vehicle)” value turned out to be 21.81%. In addition, in data set [3], the “% of CAG foci positive nuclei (DNA-PKi)” value was 2.19% and the “% of CAG foci positive nuclei (Vehicle)” value came to 1.3%.
The corresponding values for “GGGCGCGGGATCCCCGAAAAAG (guide RNA; chemistry not fully specified) [SluD43]” are 1%, 20.27%, 6.41%, 0.82% and 1.31%.
The substance “GGGGCGCGGGATCCCCGAAAAA (guide RNA; chemistry not fully specified) [SluD44]” showed an Indel efficiency in data set [1] of 24%. In data set [2], the “% of CUG foci free nuclei (DNA-PKi)” value was found to be 36.44% and the “% of CUG foci free nuclei (Vehicle)” value turned out to be 8.05%. Further, in data set [3], the “% of CAG foci positive nuclei (DNA-PKi)” value is listed as 2.29% and the “% of CAG foci positive nuclei (Vehicle)” value was found to be 1.49%.
In the same order, the values of “GGGGGTGCGTGGAGGATGGAAC (guide RNA; chemistry not fully specified) [SluD20]” are 24%, 24.59%, 13.32%, 1.1% and 1.81%.
In turn, “GGGGTCTCAGTGCATCCAAAAC (guide RNA; chemistry not fully specified) [SluD78]” yielded an Indel efficiency in data set [1] of 4%. Besides, in data set [2], the “% of CUG foci free nuclei (DNA-PKi)” value was 27% and the “% of CUG foci free nuclei (Vehicle)” value was determined as 12.61%. Besides, in data set [3], the “% of CAG foci positive nuclei (DNA-PKi)” value worked out at 1.36% and the “% of CAG foci positive nuclei (Vehicle)” value is 2.31%.
In the same order, the values of “GGGTCGGGGGTGGGGGTCCTAG (guide RNA; chemistry not fully specified) [SluD87]” are 30%, 39.12%, 15.16%, 2.19% and 1.3%.
Turning to “GGTCCTGTAGCCTGTCAGCGAG (guide RNA; chemistry not fully specified) [SluD69]”, in data set [1], the Indel efficiency is given as 14%. In addition, in data set [2], the “% of CUG foci free nuclei (DNA-PKi)” value was found to be 27.98% and the “% of CUG foci free nuclei (Vehicle)” value is reported as 10.88%. In data set [3], the “% of CAG foci positive nuclei (DNA-PKi)” value came out at 2.13% and the “% of CAG foci positive nuclei (Vehicle)” value was determined as 1.3%.
In turn, “GGTCGGGGGTGGGGGTCCTAGG (guide RNA; chemistry not fully specified) [SluD86]” displayed an Indel efficiency in data set [1] of 30%. Further, in data set [2], the “% of CUG foci free nuclei (DNA-PKi)” value amounted to 31.62% and the “% of CUG foci free nuclei (Vehicle)” value came out at 11.98%. Further, in data set [3], the “% of CAG foci positive nuclei (DNA-PKi)” value is reported as 3.95% and the “% of CAG foci positive nuclei (Vehicle)” value is given as 1.98%.
In data set [1], “GTATTTATTGTCTGTCCCCACC (guide RNA; chemistry not fully specified) [SluD84]” showed an Indel efficiency of 10%. In addition, in data set [2], the “% of CUG foci free nuclei (DNA-PKi)” value was 30.25% and the “% of CUG foci free nuclei (Vehicle)” value is given as 9.15%. In data set [3], the “% of CAG foci positive nuclei (DNA-PKi)” value is given as 3.03% and the “% of CAG foci positive nuclei (Vehicle)” value amounted to 1.28%.
For “GTCCAGAGCTTTGGGCAGATGG (listed as DNA, chemistry not fully specified) [SluD100]”, in data set [1], the Indel efficiency is on record as 81%; the “indel efficiency (Sanger sequencing and ICE analysis)” value is reported as “high editing IN4DEL efficiency”. In addition, in data set [2], the “% of CUG foci free nuclei (DNA-PKi)” value is on record as 37.39% and the “% of CUG foci free nuclei (Vehicle)” value came out at 22.06%. For the same substance, in data set [3], the “% of CAG foci positive nuclei (DNA-PKi)” value was determined as 3.35% and the “% of CAG foci positive nuclei (Vehicle)” value was determined as 2.15%.
The substance “GTCGGGGGTGGGGGTCCTAGGT (guide RNA; chemistry not fully specified) [SluD85]” had an Indel efficiency in data set [1] of 28%. For the same substance, in data set [2], the “% of CUG foci free nuclei (DNA-PKi)” value is 29.51% and the “% of CUG foci free nuclei (Vehicle)” value is 17.4%. Besides, in data set [3], the “% of CAG foci positive nuclei (DNA-PKi)” value is recorded as 2.82% and the “% of CAG foci positive nuclei (Vehicle)” value amounted to 2.51%.
The corresponding values for “GTGCGTGGAGGATGGAACACGG (guide RNA; chemistry not fully specified) [SluD19]” are 24%, 27.72%, 12.59%, 1.68% and 2.32%.
In the same order, the values of “GTGGATGGGCAAACTGCAGGCC (guide RNA; chemistry not fully specified) [SluD13]” are 55%, 42.02%, 15.93%, 2.77% and 4.07%.
Consider “GTGGGGACAGACAATAAATACC (listed as DNA, chemistry not fully specified) [SluD83]”, for which, in data set [1], the Indel efficiency was determined as 70%; the “indel efficiency (Sanger sequencing and ICE analysis)” value is recorded as “high editing IN4DEL efficiency”. For the same substance, in data set [2], the “% of CUG foci free nuclei (DNA-PKi)” value worked out at 34% and the “% of CUG foci free nuclei (Vehicle)” value was found to be 19.15%. Further, in data set [3], the “% of CAG foci positive nuclei (DNA-PKi)” value turned out to be 1.51% and the “% of CAG foci positive nuclei (Vehicle)” value was 1.64%.
In data set [1], “SluD101: downstream SluCas9 sgRNA, presumably SEQ ID NO 167; sequence not in the shown tables (guide AGTCCAGAGCTTTGGGCAGATG; listed as DNA, chemistry not fully specified)” showed an Indel efficiency of 38%. In data set [2], the “% of CUG foci free nuclei (DNA-PKi)” value was found to be 33.61% and the “% of CUG foci free nuclei (Vehicle)” value is recorded as 21.35%. Also, in data set [3], the “% of CAG foci positive nuclei (DNA-PKi)” value turned out to be 2.93% and the “% of CAG foci positive nuclei (Vehicle)” value is 2.09%.
In the same order, the values of “TAGCggccggggagggaggggc (guide RNA; as printed in the source, key not given here) [SluU49]” are 0%, 38.7%, 7.53%, 1.44% and 1.03%.
“TCAGCCTGGCCGAAAGAAAGAA (guide RNA; chemistry not fully specified) [SluD04]” registered an Indel efficiency in data set [1] of 1%. In data set [2], the “% of CUG foci free nuclei (DNA-PKi)” value was 19.38% and the “% of CUG foci free nuclei (Vehicle)” value is on record as 13.29%. Besides, in data set [3], the “% of CAG foci positive nuclei (DNA-PKi)” value is 1.94% and the “% of CAG foci positive nuclei (Vehicle)” value came to 1.17%.
In the case of “TCAGTGCATCCAAAACGTGGAT (guide RNA; chemistry not fully specified) [SluD76]”, in data set [1], the Indel efficiency came to 20%. Further, in data set [2], the “% of CUG foci free nuclei (DNA-PKi)” value was 29.87% and the “% of CUG foci free nuclei (Vehicle)” value is given as 15.78%. In data set [3], the “% of CAG foci positive nuclei (DNA-PKi)” value amounted to 2.16% and the “% of CAG foci positive nuclei (Vehicle)” value turned out to be 1.73%.
The substance “TCCAAAACGTGGATTGGGGTTG (guide RNA; chemistry not fully specified) [SluD74]” gave an Indel efficiency in data set [1] of 56%. Besides, in data set [2], the “% of CUG foci free nuclei (DNA-PKi)” value is 31.37% and the “% of CUG foci free nuclei (Vehicle)” value came to 10.6%. Besides, in data set [3], the “% of CAG foci positive nuclei (DNA-PKi)” value came to 1.55% and the “% of CAG foci positive nuclei (Vehicle)” value worked out at 2.27%.
